Assays:
TRPML1 [1] = molecular target: T1, TRPML1 (Homo sapiens, UniProt Q9GZU1); assay: Cellular TRPML1 assay (FLIPR TETRA, GCaMP6f calcium read-out); assay type: cell-based; conditions: HEK T-REx/GCaMP6f/TRPML1 cells; Ca2+ response over 300 s, normalized to ML-SA1 50 μM; Ca2+ free or Optimem condition not given; read-out: Ec50 (Activity of TRPML1 agonists)
T1 construct: expressed in transfected cells
How it was run: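 HEK T-REx cells stably expressing TRPML1 and GCaMP6f, assayed 24 h after seeding in Ca2+-free Tyrode's (pH 7.4) or Opti-MEM. Compounds injected on FLIPR Tetra (0.5% DMSO) in dose-response from 100 μM (1:2) or 50 μM (1:3.16); fluorescence kinetics 300 s, referenced to 50 μM ML-SA1 stimulator control.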

TRPML1 [2] = molecular target: T1, TRPML1; assay: TRPML1 automated patch-clamp (QPatch 16X); assay type: cell-based; conditions: HEK T-REx/GcaMP6f/TRPML1 cells, current with compound/current in vehicle, extracellular pH 4.6
Protocol: TRPML1—Automated Patch-Clamp
HEK T-REx/GcaMP6f/TRPML1 cells were cultured in DMEM High Glucose (Lonza BioWhittaker cat. BE12-604F/U1; 500 mL) supplemented with Fetal Bovine Serum TET-FREE (Euroclone cat. EC S0182L; 50 mL, Penicillin-Streptomycin (BioWhittaker, cat. DE17-602E; 5 mL of 100× Solution), G418 (Sigma, cat. G8168; 0.25 mg/ml) and Zeocyn (InvivoGen, cat. ant-zn-1; 50 μg/ml).
HEK T-REx/GcaMP6f/TRPML1 cells were seeded 48 or 72 hours before experiment, at a concentration of 8*10^6/4*10^6 cells onto a T225 flask. Just before the experiments, cells were washed twice with D-PBS w/o Ca^2+/Mg^2+ (Euroclone cat. ECB4004L) and detached from the flask with trypsin-EDTA (Sigma cat. T4174; diluted 1/10). Cells were then re-suspended in the suspension solution: 25 mL EX-CELL ACF CHO medium(Sigma cat. C5467); 0.625 mL HEPES (Sigma cat. H0887); 0.25 mL of 100× Penicillin/Streptomycin (Euroclone cat. ECB3001D), 0.1 mL of Soybean Trypsin Inhibitor 10 mg/mL (Sigma cat. T6522) and placed on the QPatch 16X.
Dilution from stock were prepared just before the experiments in the extracellular solution (0.25% final DMSO concentration). DMSO solution was obtained from AppliChem (cat. A3672)
Patch Clamp Solutions: • Intracellular solution (mM): 120 CsMeSO3, 4 NaCl, 2 MgCl2, 10 EGTA, 20 HEPES, 2 Mg-ATP (pH 7.2 with CsOH). • Extracellular solution (mM): 140 NaGluconate, 5 KCl, 1 MgCl2, 2 CaCl2), 10 Glucose, 10 MES (pH 4.6 with HCl).
Patch Clamp Analysis—QPatch 16X
For the voltage clamp experiments on TRPML1, data were sampled at 5 KHz. After establishment of the seal and the passage in the whole cell configuration, the cells were held at −20 mV and the TRPML1 current was evoked using the voltage protocol illustrated in FIG. 2, applied every 5 sec. (50 ms at −20 mV; 20 ms at −120 mV, 1000 ms ramp from −120 to […]; 20 ms at +40 mV, and back to −20 mV); in the absence (vehicle period, i.e. 0.25% DMSO) and in the presence of increasing concentrations (3) of the compound under investigation.
Agonists: For data collection, the Sophion proprietary software was used and the analysis was performed off-line using Excel and GraphPad Prism (V 8.00). Results are reported in Table 6, expressed as TRPML1 current fold increase evoked by the compound under investigation (i.e. current in the presence of the compound/current in vehicle).

T1 sequence (Q9GZU1 whole entry): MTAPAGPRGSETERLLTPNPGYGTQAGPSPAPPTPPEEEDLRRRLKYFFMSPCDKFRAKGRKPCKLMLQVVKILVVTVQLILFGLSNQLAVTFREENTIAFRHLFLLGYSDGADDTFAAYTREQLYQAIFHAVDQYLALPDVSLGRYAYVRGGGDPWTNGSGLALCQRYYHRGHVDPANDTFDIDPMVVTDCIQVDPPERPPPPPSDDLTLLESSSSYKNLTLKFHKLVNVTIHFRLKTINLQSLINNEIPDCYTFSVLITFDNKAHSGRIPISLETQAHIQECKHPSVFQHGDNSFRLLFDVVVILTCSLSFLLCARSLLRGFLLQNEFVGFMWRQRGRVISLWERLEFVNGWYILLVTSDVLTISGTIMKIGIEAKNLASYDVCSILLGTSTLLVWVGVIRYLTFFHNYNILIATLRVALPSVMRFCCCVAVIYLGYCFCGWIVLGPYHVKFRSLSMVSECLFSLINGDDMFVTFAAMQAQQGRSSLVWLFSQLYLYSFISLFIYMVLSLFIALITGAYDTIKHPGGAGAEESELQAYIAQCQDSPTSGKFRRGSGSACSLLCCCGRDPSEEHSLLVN

EC50 (TRPML1 [1]) [nM] | Qpatch Assay TRPML1 agonism Current fold increase Mean ± SEM (n) (TRPML1 [2]; 0.3 μM compound) | Qpatch Assay TRPML1 agonism Current fold increase Mean ± SEM (n) (TRPML1 [2]; 3.0 μM compound) | Qpatch Assay TRPML1 agonism Current fold increase Mean ± SEM (n) (TRPML1 [2]; 30 μM compound) | SMILES
3000 | 0.39 ± 0.14 (2) | 0.86 ± 0.68 (2) | 4.3 ± 2.2 (2) | CN(C)S(=O)(=O)c1ccc(S(=O)(=O)NC2CCCCC2N2CCC(Oc3ccccc3)CC2)cc1 (racemic) [Example 57, N1,N1-dimethyl-N4-[2-(4-phenoxypiperidin-1-yl)cyclohexyl]benzene-1,4-disulfonamide]
1700 | 1.0 ± 0.77 (3) | 32.7 ± 8.9 (3) |  | CN(C)S(=O)(=O)c1ccc(S(=O)(=O)Nc2ccccc2N2CCCCC2)cc1 [Example 6, N1,N1-dimethyl-N4-[2-(piperidin-1-yl)phenyl]benzene-1,4-disulfonamide]
2100 | 13.5 ± 4.8 (4) | 208 ± 15.7 (4) | 244 ± 27.6 (4) | CN(C)S(=O)(=O)c1ccc(S(=O)(=O)Nc2ccccc2N2CCN(C(=O)OC(C)(C)C)CC2)cc1 [Example 13, tert-butyl 4-{2-[4-(dimethylsulfamoyl)benzenesulfonamido]phenyl}piperazine-1-carboxylate]
1600 | 310 ± 147 (4) | 435 ± 172 (4) | 603 ± 155 (3) | CN(C)S(=O)(=O)c1ccc(S(=O)(=O)Nc2ccccc2N2CCC(Oc3ccccn3)CC2)cc1 [Example 75, N1,N1-dimethyl-N4-{2-[4-(pyridin-2-yloxy)piperidin-1-yl]phenyl}benzene-1,4-disulfonamide]
1300 | 35.6 ± 26.7 (3) | 38.5 ± 24.8 (2) | 52.7 ± 36.3 (2) | CN(C)S(=O)(=O)c1ccc(S(=O)(=O)Nc2ccccc2N2CCC(C(=O)OC(C)(C)C)CC2)cc1 [Example 76, f-butyl 1-{2-[4-(dimethylsulfamoyl)benzenesulfonamido]phenyl}piperidine-4-carboxylate]
1700 | 74.4 ± 13.8 (3) | 167 ± 10.7 (3) | 168 ± 9.8 (3) | CN(C)S(=O)(=O)c1ccc(S(=O)(=O)Nc2ccccc2N2CCC(Oc3cnccn3)CC2)cc1 [Example 77, N1,N1-dimethyl-N4-{2-[4-(pyrazin-2-yloxy)piperidin-1-yl]phenyl} benzene-1,4-disulfonamide]

Reference: patent US20230010299A1, “HETEROCYCLIC TRPML1 AGONISTS” (LIBRA THERAPEUTICS, INC., priority 2019, published 2023)
